Source: patent US20020054941A1, “Methods and compositions to enhance tenderness and value of meat” (The Board of Regents of the University of Nebraska, priority 2000, published 2002)
Marks after values point to notes of the source that are not given here.

Legend:
[1] = tested on: sternomandibularis beef muscles; test: Shear force of pre-rigor injected sectioned muscle; details: 200 mM (glucose, calcium chloride 300 mM)
Protocol: Pre-rigor beef muscle was sectioned into 100 g. samples at approximately 3 hours post-mortem. The pieces were injected with 10 mL of treatment solution followed by marination in the solution for 24 hours at 2° C. before testing pH and recording visual color of the muscle sections. For evaluation of shear force, samples were thawed, cooked, sliced (approximately 6 mm by 6 mm) and then cooled before readings were taken. The solutions used for this procedure were as described above for homogenized muscle.
(§1) Pre-rigor beef muscle was sectioned and the sections were injected at approximately 1 hour post-mortem with a volume of treatment solution equal to 10% of the muscle weight. Objective color measurements were taken on pieces of each muscle section and the pieces were then frozen, powdered and stored at −80° C. for up to 10 days before testing pH and analyzing oxidation-reduction potential. Shear force was evaluated as described immediately above. Solutions used in this procedure were as follows: sodium citrate (200 mM), sodium acetate (200 mM), glucose (300 mM), calcium citrate (200 mM), calcium chloride (300 mM), injection with water, and no injection (control). The calcium citrate solution was prepared as a suspension using 0.25% carrageenan and 200 mM calcium citrate due to its insolubility in water. However, use of calcium citrate can be optimized by increasing solubility by means known in the art.

[2] = tested on: sternomandibularis beef muscles; test: pH of pre-rigor injected sectioned muscle; details: injection 10% of muscle weight, 200 mM (glucose, calcium chloride 300 mM)
Protocol: as §1

[3] = tested on: triceps brachii beef muscles; test: Muscle pH, pre-rigor injection of whole muscle; details: 200 mM, calcium chloride 300 mM; for pH, 0 h: 0 h (before injection); for pH, 24 h: 24 h after injection; for pH, 72 h: 72 h after injection
Protocol: (§2) Experiment were conducted to test the effects of pre-rigor injection of several compounds. Effects of these compounds on pH, color, tenderness and other related traits of low-value beef cuts were investigated. Ten steers (22 to 24 mo of age, 515 to 676 kg live weight) were slaughtered according to current industry procedures. Pre-rigor semimembranosus (from the round), triceps brachii and supraspinatus muscles (from the chuck) were excised, after evisceration (approximately 1 hour post-mortem), from both sides of the carcass. Muscle sections were randomly assigned to the treatments: sodium citrate (NaC; 200 mM), sodium fluoride (NaF; 200 mM), sodium acetate (NaA; 200 mM), and calcium chloride (CaCl2; 300 mM). The control samples remained on the carcass at 2° C. for 24 hours to simulate commercial conditions. Following a cooling, control muscles were removed from each carcass (4 replicates), vacuum packaged and transferred to the holding cooler with the other cuts at 2° C. Calcium chloride treatment was included to be compared with the other treatments.
(§3) At 2 hours post-mortem, each muscle was injected with a volume equal to 8% of the muscle weight using a four-needle hand injector. The temperature of solutions were 4° C. Each muscle was individually treated (2% of solution was added to give a total of 10% of muscle weight) and tumbled in a 75-pound capacity tumbler (Röschermatic, Oshabrück, Germany) for 30 min to insure uniform distribution of the solution.
(§4) Samples of each muscle (approximately 100 g) were taken at 0 hour (before injection), 24, and 72 hours after injection for determination of pH, oxidation-reduction potential, glycogen content, R-values, NAD, and NADH. The samples were then immediately frozen in liquid nitrogen and stored at −80° C. until they were powdered and analyzed. Fresh muscle samples (approximately 20 g) were taken at 72 hours after injection and assayed immediately for water holding capacity and sarcomere length.
(§5) Duplicate pre-rigor samples (5 g) were weighed from powdered sample and homogenized (Polytron, Brinkman Instruments, New York, N.Y.) in 50 mL of 5 mM iodoacetic acid, 150 mM potassium chloride (pH 7.0, 24° C.) to stop glycolysis (Ahn et al., 1992). The pH of the suspension was measured with a general purpose electrode (Corning Glass Works, Corning, N.Y.) attached to an Orion Model SA 720 pH meter (Orion Research, Inc., Boston, Mass.). Post-rigor muscle pH was determined by homogenizing 5 g of sample in 50 mL of deionized water (Winger et al., 1979).

[4] = tested on: semimembranosus beef muscles; test: Muscle pH, pre-rigor injection of whole muscle; details: for pH, 0 h: 0 h (before injection); for pH, 24 h / pH, 72 h: 200 mM, calcium chloride 300 mM
Protocol: as §2, §3, §4, §5

[5] = tested on: supraspinatus beef muscles; test: Muscle pH, pre-rigor injection of whole muscle; details: for pH, 0 h: 0 h (before injection); for pH, 24 h / pH, 72 h: 200 mM, calcium chloride 300 mM
Protocol: as §2, §3, §4, §5

[6] = tested on: triceps brachii beef muscles; test: Warner-Bratzler shear force, pre-rigor injection of whole muscle; details: 200 mM, calcium chloride 300 mM; for Shear force, 3 d: 3 d postmortem; for Shear force, 7 d: 7 d postmortem; for Shear force, 14 d: 14 d postmortem
Protocol: as §2, §3
(§6) Tenderness of samples was evaluated by measuring Warner-Bratzler shear force. Steaks (2.54-cm thick) from the middle of each muscle were cut and frozen at 3, 7 and 14 days postmortem. Frozen steaks (2.54 cm thick) were thawed at 4° C. for 24 hours and cooked on Farberware Open Hearth Broilers (Model 350A Walter Kidde, Bronx, N.Y.) to an internal temperature of 40° C., turned, and cooked to a final internal temperature of 70° C. (AMSA, 1995). Temperature was monitored using an OMEGA thermocouple thermometer type T (Omega Engineering, Inc., Stamford, Conn.) inserted into the geometric center of a steak. The cooked steaks were chilled 2 hours at 2° C., and then 8 cores (1.27-cm diameter) were removed parallel to the muscle fiber orientation. Cores were sheared once each on an Instron Universal Testing Machine model 55R1123 (Instron, Canton, Mass.) with a Warner-Braztler attachment. The Instron was set up with a 500 kg load cell, full scale load=1 (0-10 kg), and crosshead speed=250 mm/mim.

[7] = tested on: semimembranosus beef muscles; test: as above; details: 200 mM, calcium chloride 300 mM; for Shear force, 3 d: 3 d postmortem; for Shear force, 7 d: 7 d postmortem; for Shear force, 14 d: 14 d postmortem
Protocol: as §2, §3, §6

[8] = tested on: supraspinatus beef muscles; test: as above; details: 200 mM; for Shear force, 3 d: 3 d postmortem; for Shear force, 3 d / Shear force, 7 d: calcium chloride 300 mM; for Shear force, 7 d: 7 d postmortem; for reduced shear force compared with controls: supraspinatus, 3 days post-mortem, CaCl2 300 mM
Protocol: as §2, §3, §6

[9] = tested on: triceps brachii beef muscles; test: Glycogen content, pre-rigor injection of whole muscle; details: 200 mM, calcium chloride 300 mM; for Glycogen, 0 h: 0 h (before injection)
Protocol: as §2, §3, §4
(§7) Glycogen extraction was performed in duplicate with 3 g of frozen-powdered muscle sample, which was homogenized with 0.6 N perchloric acid. Amylo-α-1,4-α-1,6- glucosidase from Aspergillus niger (No. A3514. Sigma Chemical, St. Louis, Mo.) was used for the breakdown of the glycogen molecules to free glucose following the method described by Roehrig and Allred (1974). Homogenate was incubated for 2 hours at 37° C., then 100 μL of 3 N perchloric acid was added to precipitate the proteins. After centrifugation, the supernatant was stored at 0-4° C., until analyzed, which was within 2 weeks.
(§8) The assay for glucose was run as described by Dalrymple and Hamm (1973) and Roehrig and Allred (1974), using glucose-6-phosphate dehydrogenase (No. G8878. Sigma Chemical, St. Louis, Mo.) and hexokinase (No. H5500. Sigma Chemical, St. Louis, Mo.). Briefly, the method involves an exoglucosidase, Amylogucosidase, from Aspergillus niger which hydrolyses the -α-D-(1-4) and -α-D-(1-6)-linkages of glycogen. The glucose formed is specifically determined with hexokinase and glucose-6-phosphate dehydrogenase. The glucose liberated after hydrolysis of glycogen is proportional to the increase of absorbance measured at 340 nm. Fifty μL of sample was incubated with 1 mL ATP, NADP, Glucose-6-phosphate dehydrogenase buffer and 5 μL hexokinase at 37° C. for 15 min. Absorbance was measured at 340 nm wavelength, light path=1 cm. The muscle glycogen content was calculated with the following formula: Glycogen (μmol glucose/g wet muscle weight)=111.882×absorbance. 111.882 is the dilution factor.

[10] = tested on: semimembranosus beef muscles; test: as above; details: for Glycogen, 0 h: 0 h (before injection); for Glycogen, 24 h / Glycogen, 72 h: 200 mM, calcium chloride 300 mM
Protocol: as §2, §3, §4, §7, §8

[11] = tested on: supraspinatus beef muscles; test: as above; details: for Glycogen, 0 h: 0 h (before injection); for Glycogen, 24 h / Glycogen, 72 h: 200 mM, calcium chloride 300 mM
Protocol: as §2, §3, §4, §7, §8

Compound	Shear force, kg (72 h) [1]	PH (0 h) [2]	pH, 72 h [2]	pH, 0 h [3]	pH, 24 h [3]	pH, 72 h [3]	pH, 0 h [4]	pH, 24 h [4]	pH, 72 h [4]	pH, 0 h [5]	pH, 24 h [5]	pH, 72 h [5]	Shear force, 3 d [6]	Shear force, 7 d [6]	Shear force, 14 d [6] [kg]	Shear force, 3 d [7] [kg]	Shear force, 7 d [7] [kg]	Shear force, 14 d [7] [kg]	Shear force, 3 d [8]	Shear force, 7 d [8]	other results
[Ca+2].[Cl-].[Cl-] [Calcium chloride, calcium chloride, reference compound]	6.61^a kg	6.77	5.88^d	6.77	5.84^b	5.67^b	6.76	5.77^b	5.60^c	6.75	5.88^c	5.54^c	4.95^bc kg	4.87^b kg	4.07	6.28	5.36	4.03	5.55^c kg	4.84^b kg	reduced shear force compared with controls [8]: 1.73 kg; Glycogen, 0 h [9]: 39.14 μmol/g muscle; Glycogen, 24 h [9]: 28.76^b μmol/g muscle; Glycogen, 72 h [9]: 25.01^bc μmol/g muscle; Glycogen, 0 h [10]: 58.18 μmol/g muscle; Glycogen, 24 h [10]: 45.90^ab μmol/g muscle; Glycogen, 72 h [10]: 37.10^ab μmol/g muscle; Glycogen, 0 h [11]: 37.98 μmol/g muscle; Glycogen, 24 h [11]: 26.75 μmol/g muscle; Glycogen, 72 h [11]: 19.31^b μmol/g muscle
O=C([O-])CC(O)(CC(=O)[O-])C(=O)[O-].O=C([O-])CC(O)(CC(=O)[O-])C(=O)[O-].[Ca+2].[Ca+2].[Ca+2] [Calcium citrate, calcium citrate]	7.57^a kg	6.92	5.82^cd	–	–	–	–	–	–	–	–	–	–	–	–	–	–	–	–	–	–
CC(=O)[O-].[Na+] [Sodium acetate, sodium acetate]	9.88^ab kg	6.86	5.80^cd	6.78	5.80^b	5.48^c	6.75	5.70^b	5.38^d	6.81	5.85^c	5.64^c	6.47^a kg	5.96^a kg	4.67	6.61	5.78	5.08	7.85^a kg	6.95^a kg	Shear force, 7 d ([8]; listed as NaA): significant increase in shear force; Glycogen, 0 h [9]: 49.53 μmol/g muscle; Glycogen, 24 h [9]: 28.74^b μmol/g muscle; Glycogen, 72 h [9]: 27.22^b μmol/g muscle; Glycogen, 0 h [10]: 64.24 μmol/g muscle; Glycogen, 24 h [10]: 40.88^b μmol/g muscle; Glycogen, 72 h [10]: 28.64^b μmol/g muscle; Glycogen, 0 h [11]: 42.83 μmol/g muscle; Glycogen, 24 h [11]: 24.43 μmol/g muscle; Glycogen, 72 h [11]: 18.10^b μmol/g muscle
[F-].[Na+] [Sodium fluoride, sodium fluoride, reference compound]	–	–	–	6.76	6.07^a	5.95^a	6.70	6.08^a	5.97^a	6.72	6.23^a	6.09^a	5.18^bc kg	4.82^b kg	4.09	6.02	5.56	4.60	6.13^bc kg	4.80^b kg	reduced shear force compared with controls [8]: 1.15 kg; Glycogen, 0 h [9]: 48.22 μmol/g muscle; Glycogen, 24 h [9]: 43.98^a μmol/g muscle; Glycogen, 72 h [9]: 37.30^a μmol/g muscle; Glycogen, 0 h [10]: 62.90 μmol/g muscle; Glycogen, 24 h [10]: 54.03^b μmol/g muscle; Glycogen, 72 h [10]: 43.77^a μmol/g muscle; Glycogen, 0 h [11]: 45.49 μmol/g muscle; Glycogen, 24 h [11]: 37.37 μmol/g muscle; Glycogen, 72 h [11]: 30.46^a μmol/g muscle
